# Measured values as given in patent US20070203233A1, “NOVEL 2-(alpha-N-PENTANONYL)BENZOATES, THEIR PREPARATION AND USE” (priority 2004, published 2007).
# Marks after values point to notes of the source that are not given here.
# Experiments:
# [1] = system: model rats of middle cerebral artery thrombosis (MCAT); test: Effects on neural symptoms of MCAT rats; assay type: in vivo, SD rats; set-up: key to Scores 6 hours / Scores 24 hours: 0/1 per test, summed (max 4); higher = more severe behavioral disorder; conditions: for Scores 6 hours: behavioral score 6 h after operation (full mark 4); for Scores 24 hours: behavioral score 24 h after operation (full mark 4); for % inhibition at hour 24: vs. model group
# Protocol: (1) Grouping and administration: […] Preventive administration was conducted by gavage one time per day for 3 days prior to the model being established. The model was established on day 4, and a dosage of one day was administered by gavage immediately after the model was established. Another dosage of one day was again administered by gavage 12 hours after the model was established. Equivalent amount of the vehicle was administered to the control group. […] Description of technique and early neuropathological consequences following middle cerebral artery occlusion. J Cereb Blood Flow Metab, 1981, 1: 53), and fixed in lateral decubitus position. A bowtype incision of 1.5 cm long was made at the midpoint between canthus and exterior auditory canal. Temporalis was broken and incised to expose temporal bone. […] The filter paper was removed after 30 min when the vascular became black. The localized tissue was washed with physiological brine, and sutured layer by layer. Then rats were placed back into the cages. By following the modified method of Bederson et al. […] (2) The animals were placed onto a smooth ground, and the resistance of contralateral shoulder to push was examined. “0” was recorded if the resistance of both shoulders were equal and strong; and “1” was recorded if the resistance of contralateral shoulder to push was decreased. […] (4) The tail of the rat was lifted 30 cm high away from the ground, and “1” was recorded if the animals ceaselessly circled contralaterally. “4” was full mark in accordance with the above-mentioned standard. The higher the score was, more severe the behavioral disorder of the animal was. 4. Results: The behavioral scores in each group were compared by student t test.
# [2] = system: model rats of middle cerebral artery thrombosis (MCAT); test: Effects on cerebral infarct area of MCAT rats; assay type: in vivo, SD rats; conditions: for Cerebral infarct tissue weight/total brain weight (%): 24 h after operation, TTC staining; for Inhibition (%): cerebral infarct vs. model group
# [3] = viscous liquid; cited from earlier work
# in vivo = conditions: both, ICR, mouse, po
# [4] = system: thrombus of artery-vein bypass in rats; test: Effects on thrombosis of artery-vein bypass in rats; assay type: in vivo, SD rats; conditions: for Dry-weight of thrombus / Wet-weight of thrombus: once per day for 3 days; for Inhibition (%) of dry-weight of thrombus / Inhibition (%) of wet-weight of thrombus: vs. thrombus model group
# Protocol: Testing methods are described in Chen-Qi, “Methodology for Pharmacological Research of Chinese Medicine”,People's Medical Publishing House, Sep. 1993, 1st ed., page 510. […] Equivalent amount of the vehicle was administered to the thrombus model group. The operation was conducted immediately after the final administration. […] The operation was conducted to separate the right common carotid artery and the left external jugular vein. A pre-weighed suture # 0 of 8 cm long was placed into the middle part of a polyethylene tube of 10 cm long. Then the tube was filled with normal saline, and connected at both ends to the cannula of 3 cm long filled with normal saline. One end of the tube was inserted into the left external jugular vein, and another end was inserted into the right common carotid artery. The blood flowed from the right common carotid artery to the polyethylene tube, and then flow back to the left external jugular vein, so as to construct a bypass circulation. […] The wet-weight of the thrombus was obtained by subtracting the weight of the suture and the paper from this total wet weight. […] The thrombus was taken out and weighed to obtain a total dry weight. The dry weight of the thrombus was obtained by subtracting the weight of the suture and the paper form this total dry weight. The results in each group were compared by student's t test. […] Testing Results
# Thermal Stability = assay type: physicochemical; conditions: 60° C., 10 days, HPLC
# The Stability to Light = assay type: physicochemical; conditions: 10 days, HPLC
Structure (SMILES),Scores 6 hours ([1]; 50 mg/kg by gavage),Scores 24 hours ([1]; 50 mg/kg by gavage),Scores 6 hours ([1]; 100 mg/kg by gavage),Scores 24 hours ([1]; 100 mg/kg by gavage),Scores 6 hours ([1]; 200 mg/kg by gavage),Scores 24 hours ([1]; 200 mg/kg by gavage),Cerebral infarct tissue weight/total brain weight (%) ([2]; 50 mg/kg by gavage),Inhibition (%) ([2]; 50 mg/kg by gavage),Cerebral infarct tissue weight/total brain weight (%) ([2]; 100 mg/kg by gavage),Inhibition (%) ([2]; 100 mg/kg by gavage),Cerebral infarct tissue weight/total brain weight (%) ([2]; 200 mg/kg by gavage),Inhibition (%) ([2]; 200 mg/kg by gavage),also measured
CCCCC1OC(=O)c2ccccc21 (racemic) [DL-3-n-butylphthalide],3.36 ± 0.81,3.09 ± 0.54,3.36 ± 0.50,3.09 ± 0.70,3.36 ± 0.67,3.00 ± 0.89,5.66 ± 2.81%,23.62%,5.81 ± 1.49 %,26.83%,5.52 ± 1.78 %,27.46%,% inhibition at hour 24 ([1]; 50 mg/kg by gavage): 15.11%; % inhibition at hour 24 ([1]; 100 mg/kg by gavage): 17.16%; % inhibition at hour 24 ([1]; 200 mg/kg by gavage): 19.57%; solubility in water (in words) [3]: insoluble in water
"CCCCC(=O)c1ccccc1C(=O)O [Calcium 2-(α-n-pentanonyl)benzoate, calcium 2-(α-n-pentanonyl)benzoate]",3.18 ± 0.60,"2.73 ± 0.65**^,s",3.40 ± 0.52,2.90 ± 0.57,3.27 ± 0.79,2.45 ± 0.82,5.01 ± 1.79 %,32.39%,5.23 ± 2.04 %,34.13%,4.65 ± 2.13 %,38.90%,"LD50 at 7 days (in vivo): 2680 mg/kg; cerebral infarct as compared with the model group (in words) ([2]; 50 mg/kg, P<0.05): significantly reduced; Dry-weight of thrombus ([4]; 50 mg/kg by gavage): 40.2 ± 18.0 mg; Wet-weight of thrombus ([4]; 50 mg/kg by gavage): 199.8 ± 30.4 mg; Inhibition (%) of dry-weight of thrombus ([4]; 50 mg/kg by gavage): 21.64%; Inhibition (%) of wet-weight of thrombus ([4]; 50 mg/kg by gavage): 22.92%; Dry-weight of thrombus ([4]; 100 mg/kg by gavage): 34.2 ± 13.1 mg; Wet-weight of thrombus ([4]; 100 mg/kg by gavage): 189.8 ± 52.3 mg; Inhibition (%) of dry-weight of thrombus ([4]; 100 mg/kg by gavage): 33.33%; Inhibition (%) of wet-weight of thrombus ([4]; 100 mg/kg by gavage): 26.77%; Dry-weight of thrombus ([4]; 200 mg/kg by gavage): 30.4 ± 13.9 mg; Wet-weight of thrombus ([4]; 200 mg/kg by gavage): 163.2 ± 64.4 mg; Inhibition (%) of dry-weight of thrombus ([4]; 200 mg/kg by gavage): 40.74%; Inhibition (%) of wet-weight of thrombus ([4]; 200 mg/kg by gavage): 37.04%; decomposed product detected, thermal stability (in words) (Thermal Stability): no decomposed product; decomposed product detected, stability to light (in words) (The Stability to Light): no decomposed product"
